Data reported in patent US4136179A, “2,2-Dimethyl-19-nor-steroids” (Roussel Uclaf, priority 1976, dated 1979).

Test system: aldosterone monoacetate
Assay: Anti-aldosterone activity in surrenalectomized rats (urinary sodium/potassium)
Format: in vivo, rat (male, Sprague-Dawley)
Details: for % inhibition of the activity of 1 μg/kg of aldosterone monoacetate: surrenalectomized male Sprague-Dawley rats, aldosterone 1 μg/kg s.c., 4 hours urine, sodium and potassium; for antialdosterone activity (in words): orally administered
Procedure: Male rats of the Sprague-Dawley strain weighing about 180 g were surrenalectomized and at that moment, the rats received with their drinking water physiological serum. On the 4th day, the animals were fasted for 16 hours and then received as drinking water water containing 5% glucose. The test product was administered orally at the end of 16 hours in the form of a suspension in 0.25% carboxymethylcellulose. One hour after the administration of the product, they received intraperitoneally a surcharge of aqueous sodium chloride at a rate of 5 ml per 100 g of body weight of […] physiological serum and subcutaneously 1 μg/kg of an alcoholic solution of 2.5% of aldosterone acetate. The animals were placed in diuresis cages without food or drink for 4 hours. At the end of this time, a miction was forced by pressure on the bladder and the volume of urine was adjusted to 50 ml and the amount of sodium and potassium was determined with an autoanalyser. The results expressed as the percentage of inhibition of the activity of 1 μg/kg of aldosterone monoacetate injected subcutaneously with the ratio of [formula] in the surrenalectomized rats is reported in the following Table.

Row | Compound | % inhibition of the activity of 1 μg/kg of aldosterone monoacetate (oral dose 5 mg/kg) [%] | antialdosterone activity (in words) | % inhibition of the activity of 1 μg/kg of aldosterone monoacetate (oral dose 10 mg/kg) [%]
1 | CC1(C)CC2C(=CC1=O)CCC1C2CCC2(C)C(C(=O)CO)CCC12 (stereo not shown) [Example 3, 2,2-dimethyl-19-nor-Δ^4-pregnene-21-ol-3,20-dione] | 50 | interesting antialdosterone activity | –
2 | CC1(C)CC2=C3C=CC4(C)C(C(=O)CO)CCC4C3CCC2=CC1=O (stereo not shown) [Example 9, 2,2-dimethyl-19-nor-Δ^4,9,11-pregnatriene-21-ol-3,20-dione] | – | interesting antialdosterone activity | 91
